The text below walks through data of ChEMBL document CHEMBL1156335, “Inhibition studies of a beta-carbonic anhydrase from Brucella suis with a series of water soluble glycosyl sulfanilamides” (Bioorg Med Chem Lett, 2010).

Active and inactive are the calls of the source. No cut-off for these calls is given here.

The target of the assay is T1, Histidinol dehydrogenase (Brucella suis biovar 1 (strain 1330)) (UniProt Q8G2R2).
T1 sequence (whole entry): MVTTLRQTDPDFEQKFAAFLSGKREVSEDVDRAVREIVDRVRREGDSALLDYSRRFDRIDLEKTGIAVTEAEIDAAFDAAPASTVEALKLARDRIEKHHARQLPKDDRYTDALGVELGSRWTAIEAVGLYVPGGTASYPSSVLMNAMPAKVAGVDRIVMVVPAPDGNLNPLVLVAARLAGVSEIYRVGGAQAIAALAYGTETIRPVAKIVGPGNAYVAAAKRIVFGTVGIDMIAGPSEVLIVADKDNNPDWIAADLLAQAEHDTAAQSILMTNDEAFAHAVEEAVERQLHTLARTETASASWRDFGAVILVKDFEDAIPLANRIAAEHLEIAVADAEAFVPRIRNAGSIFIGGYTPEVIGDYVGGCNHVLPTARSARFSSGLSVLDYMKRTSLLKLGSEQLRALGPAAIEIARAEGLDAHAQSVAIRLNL
Kind of assay: Antibacterial activity against Brucella suis at 10 uM after 8 to 11 days. The class given is functional.

Take `C[C@H]1O[C@@H](Nc2ccc(S(N)(=O)=O)cc2)[C@@H](O)[C@@H](O)[C@@H]1O`: the result was Active.
